Source: patent US10941137B2, “Difluoromethyl-phenyl triazoles” (Boehringer Ingelheim International GmbH, priority 2018, dated 2021)
One block for each compound: values may come before it.

How the values were obtained:
human MDR1 P-gp = assay: Efflux in MDCK cells transfected with the human MDR1 gene (MDCK-PGP permeability); format: in vitro ADME, canine; details: dog, pH 7.4, 37° C.; for efflux ratio: PEBA/PEAB; for Papp A→B: apical-to-basal apparent permeability (PEAB)
Procedure: Assessment of Efflux in Madin-Darby Canine Kidney (MDCK) Cells Transfected with the 30 Human MDR1 Gene to Assess Brain Penetration (Drug Metabolism and Disposition February 2008, 36 (2) 268-275; DOI: https://doi.org/10.1124/dmd.107.017434) Apparent permeability coefficients (PE) of the compounds across the MDCK-MDR1 cell monolayers are measured (pH 7.4, 37° C.) in apical-to-basal (AB) and basal-to-apical (BA) transport direction. AB permeability (PEAB) represents drug absorption from the blood into the 35 brain and BA permeability (PEBA) drug efflux from the brain back into the blood via both passive permeability as well as active transport mechanisms mediated by efflux and uptake transporters that are expressed on the MDCK-MDR1 cells, predominantly by the overexpressed human MDR1 P-gp. The compounds are assigned to permeability/absorption classes by comparison of the AB permeabilities with the AB permeabilities of reference compounds with known in vitro permeability and oral absorption in the human. Identical or similar permeabilities in both transport directions indicate passive permeation, vectorial permeability points to additional active transport mechanisms. Higher PEBA than PEAB indicates the involvement of active efflux mediated by MDR1 P-gp. Active transport is concentration-dependently saturable.
MDCK-MDR1 cells (1-2×10e5 cells/1 cm2 area) are seeded on filter inserts (Costar transwell polycarbonate or PET filters, 0.4 μm pore size) and cultured (DMEM) for 7 days. Subsequently, the MDR1 expression is boosted by culturing the cells with 5 mM sodium butyrate in full medium for 2 days. Compounds are dissolved in appropriate solvent (like DMSO, 1-20 mM stock solutions). Stock solutions are diluted with HTP-4 buffer (128.13 mM NaCl, 5.36 mM KCl, 1 mM MgSO4, 1.8 mM CaCl2, 4.17 mM NaHCO3, 1.19 mM Na2HPO4×7H2O, 0.41 mM NaH2PO4xH2O, 15 mM HEPES, 20 mM glucose, 0.25% BSA, pH 7.4) to prepare the transport solutions (0.1-300 μM compound, final DMSO <=0.5%). The transport solution (TL) is applied to the apical or basolateral donor side for measuring A-B or B-A permeability (3 filter replicates), respectively. The receiver side contains the same buffer as the donor side. Samples are collected at the start and end of experiment from the donor and at various time intervals for up to 2 hours also from the receiver side for concentration measurement by HPLC-MS/MS or scintillation counting. Sampled receiver volumes are replaced with fresh receiver solution.

[1] = Metabolic stability in human liver microsomes (Human MST); format: in vitro ADME; details: pooled human liver microsomes, pH 7.6; human liver microsomes 1 mg/mL, 1 μM compound, NADPH 1 mM, 37° C.; read-out: Human MST t1/2
Procedure: Assessment of Metabolic Stability in Human Liver Microsomes (Human MST) The metabolic stability of the compounds according to the invention may be investigated as follows: The metabolic degradation of the test compound is assayed at 37° C. with pooled human liver microsomes. The final incubation volume of 100 μL per time point contains TRIS buffer pH 7.6 at room temperature (0.1 M), MgCl2 (5 mM), microsomal protein (1 mg/mL) and the test compound at a final concentration of 1 μM. Following a short pre-incubation period at 37° C., the reactions are initiated by addition of beta-nicotinamide adenine dinucleotide phosphate, reduced form (NADPH, 1 mM), and terminated by transferring an aliquot into solvent after different time points. After centrifugation (10000 g, 5 min), an aliquot of the supernatant is assayed by LCMS/MS for the amount of parent compound. The half-life (t½) is determined by the slope of the semi-logarithmic plot of the concentration-time profile.

α5β2γ2 GABAA receptor = molecular target: T1, α5β2γ2 GABAA receptor (Homo sapiens, UniProt P18507+P31644); assay: Assay B: modulation of α5β2γ2 GABAA receptor, two-electrode voltage clamp in oocytes; format: cell-based; details: for EC50: oocytes, TEVC, co-application with GABA 0.5 μM (EC5-20), read-out: Assay B: GABAA α5β3γ2 EC50
T1 sequence (P31644 32-462): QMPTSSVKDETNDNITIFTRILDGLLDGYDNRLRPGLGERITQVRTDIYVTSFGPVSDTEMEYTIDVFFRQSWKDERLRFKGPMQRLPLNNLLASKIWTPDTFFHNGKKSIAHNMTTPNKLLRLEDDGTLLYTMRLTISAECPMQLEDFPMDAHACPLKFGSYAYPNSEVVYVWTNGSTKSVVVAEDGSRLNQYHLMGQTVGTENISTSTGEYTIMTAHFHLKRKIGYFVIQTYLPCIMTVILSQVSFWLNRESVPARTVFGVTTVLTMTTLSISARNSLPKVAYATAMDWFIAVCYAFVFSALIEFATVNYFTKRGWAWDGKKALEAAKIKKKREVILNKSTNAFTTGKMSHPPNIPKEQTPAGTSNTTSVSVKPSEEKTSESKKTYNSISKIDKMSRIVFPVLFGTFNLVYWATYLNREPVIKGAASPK
T1 sequence (P18507 40-376 limits assumed): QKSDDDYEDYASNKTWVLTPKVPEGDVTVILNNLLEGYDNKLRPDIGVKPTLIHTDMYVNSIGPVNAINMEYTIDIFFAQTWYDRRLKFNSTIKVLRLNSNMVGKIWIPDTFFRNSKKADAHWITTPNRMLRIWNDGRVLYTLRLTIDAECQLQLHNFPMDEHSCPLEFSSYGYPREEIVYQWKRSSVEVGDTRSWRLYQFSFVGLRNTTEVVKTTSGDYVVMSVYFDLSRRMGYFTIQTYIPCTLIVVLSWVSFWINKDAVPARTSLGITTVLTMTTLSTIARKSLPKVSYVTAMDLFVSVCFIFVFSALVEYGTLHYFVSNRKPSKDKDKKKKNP
Procedure: Assay B: In vitro evaluation of modulation of α5β2γ2 GABAA receptor.
Modulatory efficacy of compounds of formula (I) is determined electrophysiological recordings in oocytes using the two-electrode voltage clamp (TEVC) technique. Oocytes are injected with cRNA for human GABAA receptor subunits α5, β2 and γ2 in a 3:1:3 ratio and modulatory efficacy is evaluated by co-applications with a submaximal EC5-20 GABA concentration (0.5 μM) termed GABA control. As a standard, the compounds are tested in five concentrations (3.16, 0.316, 0.0316, 0.00316 and 0.000316 μM) on each oocyte starting with the lowest concentration. Background subtracted peak current amplitudes are normalized to the respective GABA control current, converted to % change and depicted +/−S.E.M. as a function of increasing compound concentrations. Plotted datapoints are fitted to the empirical Hill equation using non-linear regression. 95% confidence intervals for maximal efficacy (Bottom) and potency (Log EC50) are derived from this fitting routine.

[2] = molecular target: T2, human GABAA α5β3γ2s receptor (Homo sapiens, UniProt P18507+P31644); assay: Assay A: in vitro inhibition of 3H-flumazenil binding, HEK cells expressing human GABAA α5β3γ2s receptor; details: 3H-flumazenil 1 nM, HEK-293 membranes, 40 min at 2° C.; Ki from IC50 by Cheng and Prusoff
T2 sequence (P18507 1-475): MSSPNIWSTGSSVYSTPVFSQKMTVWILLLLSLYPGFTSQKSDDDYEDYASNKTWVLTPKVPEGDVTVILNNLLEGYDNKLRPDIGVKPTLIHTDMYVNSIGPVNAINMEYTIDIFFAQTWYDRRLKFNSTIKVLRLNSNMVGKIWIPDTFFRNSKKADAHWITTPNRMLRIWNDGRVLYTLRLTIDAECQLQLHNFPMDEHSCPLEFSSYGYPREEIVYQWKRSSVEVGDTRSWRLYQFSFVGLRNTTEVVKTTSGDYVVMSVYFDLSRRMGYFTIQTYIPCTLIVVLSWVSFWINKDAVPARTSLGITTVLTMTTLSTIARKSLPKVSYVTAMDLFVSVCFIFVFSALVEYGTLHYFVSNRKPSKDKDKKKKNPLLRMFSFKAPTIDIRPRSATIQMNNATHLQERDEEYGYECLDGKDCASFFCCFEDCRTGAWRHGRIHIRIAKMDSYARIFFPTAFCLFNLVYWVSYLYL
T2 sequence (P31644 1-462): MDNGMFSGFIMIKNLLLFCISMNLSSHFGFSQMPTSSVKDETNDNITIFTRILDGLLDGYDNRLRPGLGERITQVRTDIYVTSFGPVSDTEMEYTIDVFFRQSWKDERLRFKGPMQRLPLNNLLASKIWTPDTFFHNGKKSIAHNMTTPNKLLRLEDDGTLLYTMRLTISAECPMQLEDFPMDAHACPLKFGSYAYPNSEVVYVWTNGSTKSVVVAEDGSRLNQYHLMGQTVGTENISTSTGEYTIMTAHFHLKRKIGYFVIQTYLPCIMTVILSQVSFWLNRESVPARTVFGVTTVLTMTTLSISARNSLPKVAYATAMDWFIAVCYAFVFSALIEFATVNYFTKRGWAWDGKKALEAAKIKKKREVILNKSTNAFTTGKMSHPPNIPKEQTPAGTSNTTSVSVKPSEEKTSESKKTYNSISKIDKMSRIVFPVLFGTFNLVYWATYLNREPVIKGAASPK
Procedure: HEK-293 cell lines with stable expression of recombinant human GABAA α5β3γ2s receptors (plasmid H46/E9/B10) are seeded in T175 polystyrene flasks or roller bottles (1700 cm^2, Fisher Scientific CCI-431191), and cultured (37 C, 5% CO˜) in Dulbecco's Modified Eagle Medium (DMEM) with GlutaMAX™ supplemented with 10% fetal bovine serum and one or both of the following antibiotics: hygromycin B ([…]; γ2 subunit) or G418 (0.5 mg/ml; […]).
When the cultures reach confluency, the DMEM is removed and the cells are washed (10 ml for T175 flasks; 50 ml for roller bottles) once in Dulbecco's Phosphate Buffered Saline (DPBS). Following addition of DPBS to the cultures (10 ml for T175 flasks; 100 ml for roller bottles) for approximately 5 min cells are easily detached from the surface by shaking or tapping the flask gently. The cell suspension is transferred to Falcon tubes and centrifuged at 23,500×g for 10 min at 2° C. The pellet is washed once in 15 ml Tris-citrate buffer (50 mM, pH 7.1) using an Ultra-Turrax homogenizer and centrifuged at 2° C. for 10 min at 27,000×g. The washed pellet is re-suspended in 15 ml Tris-citrate buffer and frozen at −80° C. until the day of the binding experiment.
On the day of the experiment the cell membrane preparation is thawed and centrifuged at 2° C. for 10 min at 27,000×g. The pellet is re-suspended, using an Ultra-Turrax homogenizer in Tris-citrate buffer, to 15-50 µg protein per assay and then used for binding assays.
Non-specific binding is determined using clonazepam (1 μM, final concentration).
All dilutions of test compounds and incubation of assay are performed in glass vials/96-vial plates. […] Compounds are dissolved in 100% DMSO (10 mM stock), diluted in 48% ethanol-water, and tested in triplicate in serial 1:3 or 1:10 dilutions. When screening large numbers of compounds only one concentration of each compound is tested in single wells. Reference compounds are not included routinely, but for each experiment performed total and nonspecific binding is compared to data obtained during validation of the assay.
Binding is either terminated by rapid filtration onto
1) Whatman GF/C glass fibre filters using a Brandel Cell harvester, followed by 5 washes with 1 ml ice-cold buffer or onto 2) UniFilter GF/C glass fibre filter plates using a Tomtec cell harvester, followed by washing with approximately 5 ml ice-cold buffer.
The amount of radioactivity on the filters is determined by conventional liquid scintillation counting using a
1) Tri-Garb™ counter (PerkinElmer Life and Analytical Sciences) for separate large filters or
2) Topcount™ counter (PerkinElmer Life and Analytical Sciences) for 96-well filter plates. Specific binding is total binding minus non-specific binding.
For screening purposes n is set to 1. The IC50 value is calculated from the concentration response curves by the non-linear regression method using the curve-fitting program GraphPad Prism. […]

SMILES: Cc1nnn(-c2ccc(C(F)F)cc2)c1COc1ccc(-c2ccn[nH]2)nn1 [Example 10]
efflux ratio (human MDR1 P-gp): 1.7
Papp A→B (human MDR1 P-gp): 22.4 ×10⁻⁶ cm/s
half-life at 1 μM [1]: > 2.17 h
Assay B: GABAA α5β3γ2 Emax vs GABA (α5β2γ2 GABAA receptor): -18%
EC50 (α5β2γ2 GABAA receptor): 5.8 nM

SMILES: Cc1nnn(-c2ccc(C(F)F)cc2)c1COc1ccc(-n2cncn2)nn1 [Example 28, 3-({1-[4-(difluoromethyl)phenyl]-4-methyl-1H-1,2,3-triazol-5-yl}methoxy)-6-(1H-1,2,4-triazol-1-yl)pyridazine]
efflux ratio (human MDR1 P-gp): 0.6
Papp A→B (human MDR1 P-gp): 68.7 ×10⁻⁶ cm/s
half-life at 1 μM [1]: > 2.17 h
Assay B: GABAA α5β3γ2 Emax vs GABA (α5β2γ2 GABAA receptor): -25%
EC50 (α5β2γ2 GABAA receptor): 5.5 nM

SMILES: Cc1nnn(-c2ccc(C(F)F)cc2)c1COc1ccc(-n2cnc([S+](C)[O-])c2)nn1 (stereo not shown) [Example 23]
Ki [2]: 0.27 nM
Assay B: GABAA α5β3γ2 Emax vs GABA (α5β2γ2 GABAA receptor): -12%
EC50 (α5β2γ2 GABAA receptor): 2 nM

Other lines, results leading:

Ki [2]: 0.035 nM
Assay B: GABAA α5β3γ2 Emax vs GABA (α5β2γ2 GABAA receptor): -4.3%
SMILES: Cc1nnn(-c2ccc(C(F)F)cc2)c1COc1ccc(-n2nc(C#N)cc2C)nn1 [Example 34]

efflux ratio (human MDR1 P-gp): 0.5
Papp A→B (human MDR1 P-gp): 69 ×10⁻⁶ cm/s
half-life at 1 μM [1]: > 2.17 h
Assay B: GABAA α5β3γ2 Emax vs GABA (α5β2γ2 GABAA receptor): -23%
EC50 (α5β2γ2 GABAA receptor): 9 nM
SMILES: Cc1nnn(-c2ccc(C(F)F)cc2)c1COc1ccc(-c2cnccn2)nn1 [Example 13]

efflux ratio (human MDR1 P-gp): 2.6
Papp A→B (human MDR1 P-gp): 18.1 ×10⁻⁶ cm/s
half-life at 1 μM [1]: > 2.17 h
Assay B: GABAA α5β3γ2 Emax vs GABA (α5β2γ2 GABAA receptor): -23.3%
EC50 (α5β2γ2 GABAA receptor): 1.5 nM
SMILES: Cc1nnn(-c2ccc(C(F)F)cc2)c1COc1ccc(-n2cnc(C#N)c2)nn1 [Example 1, 1-[6-({1-[4-(difluoromethyl)phenyl]-4-methyl-1H-1,2,3-triazol-5-yl}methoxy)pyridazin-3-yl]-1H-imidazole-4-carbonitrile]
